Assay [1] relates to ES2 ARID1A-knockdown cells (shARID1A). Briefly: Cell growth after 72 h drug treatment, ARID1A-knockdown versus control cells. The assay is classed as cell-based, human. Particulars: 72 h treatment; compared to untransfected or shCon ES2 cells. The protocol: Short Hairpin RNA (shRNA)-Mediated Knockdown and Expression of ARID1A in ovarian and endometrial carcinoma cells. shRNA lentiviral supernatants were produced using standard protocols, as previously described^8. Vectors were transfected into HEK293FT cells using X-tremeGENE 9 DNA Transfection Reagent (from Roche). Retroviral supernatants isolated at 48 h were diluted 1:1 in culture medium and used to infect ARID1A-wildtype ES2 and KLE cell lines. Stably transfected subclones were expanded using puromycin (from Dot Scientific) drug selection. For expression of ARID1A in the ARID1A-mutant HEC-1-A cell line, pCIN4-HA-ARID1A was transfected using X-tremeGENE 9 DNA Transfection Reagent (from Roche), followed by selection with G418 (from Gibco). For expression of ARID1A in the ARID1A-mutant SKOV3 and OVISE cell lines, V5/His-tagged pLenti-puro-LacZ and pLenti-puro-ARID1A were transfected using lentivirus. […]
Cytotoxicity assay. […] Cell number was determined using a sulforhodamine B (SRB) assay, as previously described^23. […] After washing, protein-bound dye was solubilized with 10 mM unbuffered Tris-base solution (pH 10.5) and detected at 510 nm using a microplate reader. Percentage of cell-growth was calculated using the following formula: % cell growth=[(Absorbance sample)/(Absorbance untreated)]×100 […]

In assay [2] the test system is ES2 cells. Briefly: Cytotoxicity (SRB) assay with CalcuSyn combination analysis. The assay is classed as cell-based. Particulars: Homo sapiens, ES-2, Table 2; ES2 parental; VX970 alone; read-out: Dm. As for the experimental part:
Cytotoxicity assay. Cells were seeded in 96-well plates, with 2000 cells in 100 μL/well, and cultured for 24 h. The cells were treated with serial dilutions of drugs or without drug for an additional 72 h. Cell number was determined using a sulforhodamine B (SRB) assay, as previously described^23. Briefly, cells were fixed with 20% trichloroacetic acid (TCA), air-dried, and stained with 0.4% SRB dissolved in 1% acetic acid. After washing, protein-bound dye was solubilized with 10 mM unbuffered Tris-base solution (pH 10.5) and detected at 510 nm using a microplate reader. Percentage of cell-growth was calculated using the following formula: % cell growth=[(Absorbance sample)/(Absorbance untreated)]×100 […] Datasets from at least three independent experiments were combined, and each table cell contains the mean value±SD. SCR, ES2-shScrambled. N/A, not applicable. Statistical analysis was carried out by one-way ANOVA with Bonferroni's post-hoc test, and differences were considered significant at **P<0.01 and ***P<0.001 as compared to the ES2 parental group with the same drug treatment. […] CIwt value was calculated using the formula: […] Datasets from at least three independent experiments were combined, and each table cell contains the mean value±SD. Teri, teriflunomide. SCR, ES2-shScrambled. N/A, not applicable. Statistical analysis was carried out by one-way ANOVA with Bonferroni's post-hoc test, and differences were considered significant at ***P<0.001 as compared to the ES2 parental group with the same drug treatment.

The subject of assay [3] is ES2 shARID1A (b) cells. The assay is described as above. Type of assay: cell-based. Particulars: Homo sapiens, Table 2, VX970 alone, read-out: Dm. The protocol:
(§1) Short Hairpin RNA (shRNA)-Mediated Knockdown and Expression of ARID1A in ovarian and endometrial carcinoma cells. shRNA lentiviral supernatants were produced using standard protocols, as previously described^8. Vectors were transfected into HEK293FT cells using X-tremeGENE 9 DNA Transfection Reagent (from Roche). Retroviral supernatants isolated at 48 h were diluted 1:1 in culture medium and used to infect ARID1A-wildtype ES2 and KLE cell lines. Stably transfected subclones were expanded using puromycin (from Dot Scientific) drug selection. For expression of ARID1A in the ARID1A-mutant HEC-1-A cell line, pCIN4-HA-ARID1A was transfected using X-tremeGENE 9 DNA Transfection Reagent (from Roche), followed by selection with G418 (from Gibco). For expression of ARID1A in the ARID1A-mutant SKOV3 and OVISE cell lines, V5/His-tagged pLenti-puro-LacZ and pLenti-puro-ARID1A were transfected using lentivirus. Lentivirus was produced using HEK293FT cells with the second-generation packaging system pSPAX2 (Addgene plasmid) and pMD2.G (Addgene plasmid). Stably transfected subclones were expanded using puromycin and blasticidin (Gibco) drug selection.
(§2) Cytotoxicity assay. Cells were seeded in 96-well plates, with 2000 cells in 100 μL/well, and cultured for 24 h. The cells were treated with serial dilutions of drugs or without drug for an additional 72 h. Cell number was determined using a sulforhodamine B (SRB) assay, as previously described^23. Briefly, cells were fixed with 20% trichloroacetic acid (TCA), air-dried, and stained with 0.4% SRB dissolved in 1% acetic acid. After washing, protein-bound dye was solubilized with 10 mM unbuffered Tris-base solution (pH 10.5) and detected at 510 nm using a microplate reader. Percentage of cell-growth was calculated using the following formula: % cell growth=[(Absorbance sample)/(Absorbance untreated)]×100
(§3) Using CalcuSyn software (Biosoft), dose-effect curves were generated, and drug concentrations corresponding to a 50% decrease in cell number (IC50) were determined.
(§4) Drug concentrations corresponding to a median effect (Dm) are shown for each treatment; teriflunomide concentration is shown for combination (Combo) treatment at a 10:1 fixed molar ratio of two drugs, teriflunomide and AZD6738. […] Datasets from at least three independent experiments were combined, and each table cell contains the mean value±SD. SCR, ES2-shScrambled. N/A, not applicable. Statistical analysis was carried out by one-way ANOVA with Bonferroni's post-hoc test, and differences were considered significant at **P<0.01 and ***P<0.001 as compared to the ES2 parental group with the same drug treatment.
(§5) Drug concentrations (in μM for teriflunomide, in nM for […]) corresponding to median effect (Dm) are shown for each treatment; teriflunomide concentration is shown for combination (Combo) treatment at a 200:1 fixed molar ratio of the two drugs, teriflunomide and VX-970. […] CIwt<0.8, =0.8 to 1.2, and >1.2 indicates synergism, an additive effect, and antagonism, respectively. CIwt value was calculated using the formula: CIwt=(ED50+2ED75+3ED90)/6. Datasets from at least three independent experiments were combined, and each table cell contains the mean value±SD. Teri, teriflunomide. SCR, ES2-shScrambled. N/A, not applicable. Statistical analysis was carried out by one-way ANOVA with Bonferroni's post-hoc test, and differences were considered significant at ***P<0.001 as compared to the ES2 parental group with the same drug treatment.

The subject of assay [4] is ES2 shARID1A (a) cells. The assay is described as above. Type of assay: cell-based. Particulars: Homo sapiens, Table 2, VX970 alone, read-out: Dm. The protocol:
as §1, §2, §3, §4, §5

Assay [5] has as its system ES2-shScrambled (SCR) cells. Described as above. Type of assay: cell-based. Particulars: Homo sapiens, Table 2, VX970 alone, read-out: Dm. The protocol: as §1, §2, §3, §4, §5
Assay [6] has as its system ARID1A-knockout HCT116 cells. Put plainly: Cell growth after 72 h drug treatment, ARID1A-knockout versus wild-type cells. The assay is classed as cell-based, human. Particulars: 72 h treatment; compared to ARID1A wild-type HCT116 control cells. As for the experimental part: Cell Lines. Adherent cell lines were cultured in RPMI 1640 (from Gibco) supplemented with 10% fetal bovine serum (from Gibco) and 1% penicillin-streptomycin (from Gibco) at 37° C., 5% CO2. Low-passage-number cells were used, and all cell lines tested negative for mycoplasma using the MycoAlert Mycoplasma Detection Kit (from Lonza). The following ovarian and endometrial cancer cell lines were used: ES26, KLE5, SKOV3, OVISE (from JCRB Cell Bank), and HEC-1-A5 cells and their stably transfected subclones, as described below. Cell lines were authenticated using the GenePrint10 kit (form Promega) and matching to their original profiles (at ATCC). ARID1A protein expression status was confirmed by immunoblotting. HEK293FT cells were from Thermo Fisher Scientific. ARID1A-knockout HCT116 (homozygous truncating mutations, Q456*/Q456*) and ARID1A-wildtype HCT116 colorectal carcinoma cells were from Horizon Discovery.
Cytotoxicity assay. Cells were seeded in 96-well plates, with 2000 cells in 100 μL/well, and cultured for 24 h. […] Cell number was determined using a sulforhodamine B (SRB) assay, as previously described^23. […] After washing, protein-bound dye was solubilized with 10 mM unbuffered Tris-base solution (pH 10.5) and detected at 510 nm using a microplate reader. Percentage of cell-growth was calculated using the following formula: % cell growth=[(Absorbance sample)/(Absorbance untreated)]×100 […]

The test system of assay [7] is γ-H2AX. Put plainly: Immunoblot and immunofluorescence of γ-H2AX in ES2 cells. Particulars: ARID1A-knockdown ES2 cells; teriflunomide 15 μM, AZD6738 1.5 μM, VX-970 0.075 μM; 24-72 h. Type of assay: cell-based, human. The protocol:
Immunoblot Analysis and Co-Immunoprecipitation Assay. For immunoblotting experiments, cells were lysed in BC200 lysis buffer [20 mM Tris-HCl (pH 7.5), 200 mM NaCl, 1 mM EDTA, 0.2% Nonidet P-40 (NP-40), freshly added complete protease inhibitor cocktail (from Roche), and PhosSTOP phosphatase inhibitor (from Roche)] or in boiling SDS lysis buffer [1% SDS and 10 mM Tris-CI (pH 7.5)], as previously described^21. Protein concentrations were quantified using a modified Lowry assay, and equal protein amounts were loaded onto a 10% SDS-PAGE gel and separated by gel electrophoresis, followed by transfer to a nitrocellulose membrane. The nitrocellulose membrane was stained with Ponceau S to confirm equal protein loading and then blocked in 2% BSA in Tris-buffered saline with 0.1% Tween-20 (tris buffered saline with tween, or TBST). Primary antibody incubation was done for 2 h at room temperature or, for phospho-specific antibodies, overnight at 4° C. An HRP-conjugated secondary antibody was used, followed by detection using enhanced chemiluminescence substrate (from Pierce). Autoradiograph images were scanned and saved as unmodified TIFF images, and densitometry analysis was done with ImageJ (from NIH) software.
Immunofluorescence. […] Images of cells were acquired using a BZ-X710 fluorescence microscope (from KEYENCE) and analyzed using ImageJ (from NIH).
A general note: A western blot detects proteins with antibodies after separation by electrophoresis.

With `CCc1cncnc1N1CCN(Cc2nc3ccc(C(F)(F)F)cc3[nH]2)CC1` [PF-4708671], the “Drug sensitivity of ARID1A-knockdown ES2 cells” value in assay [1] is recorded as “significantly hypersensitive”.
With `CNCc1ccc(-c2cc(-c3nc(-c4ccc(S(=O)(=O)C(C)C)cc4)cnc3N)on2)cc1` [VX-970], the IC50 is 165 ± 3.84 nM in assay [2], 63.3 ± 10.4 nM in assay [3], 54.3 ± 1.31 nM in assay [4] and 170 ± 9.24 nM in assay [5]. In addition, in assay [6], the “Drug sensitivity of ARID1A-knockout HCT116 cells” value is listed as “more sensitive”. For the same compound, the γ-H2AX protein levels result in assay [7] was “increased”.

These data come from patent US11801232B2, “Targeting of ARID1A-deficient cancers by inhibiting de novo pyrimidine synthesis pathway” (YALE UNIVERSITY, priority 2019, dated 2023).
